{"source": "patent US20250102494A1", "about": "“COMPOSITION FOR PREDICTING OXALIPLATIN DRUG EFFICACY, AND USE THEREOF” (SAMSUNG LIFE PUBLIC WELFARE FOUNDATION, priority 2022, published 2025)", "assay_type_in_all_cases": "cell-based", "key": {"[1]": {"test_system": "Sensitive Cell Line (HCT116, RKO, SW620, LS147T)", "assay": "Average oxaliplatin AUC over sensitive colorectal cancer cell lines", "procedure": "(§1) Four hours after the medium change, the cells were treated with oxaliplatin, 5-FU, Irinotecan, and folinic acid. Five days after drug treatment, intracellular ATP expression was determined using the ATPlite assay kit (PerkinElmer), and the data were expressed in terms of cell viability, IC50, and AUC.\n(§2) As the standard for confirming that cells are sensitive to the drug, the response of the cells to the drug was assumed to be 100%, and the luminescence value of surviving cells after drug treatment was analyzed and compared with the quantified drug response value.\n(§3) Based on the assumption that the factor that increases the resistance of the organoids to oxaliplatin is an activator or inhibitor that changes the phenotype, the organoids prepared by excluding some or all of activators and inhibitors as shown in Table 4 below were treated with oxaliplatin.\n(§4) In order to confirm reduced resistance to oxaliplatin, ECT116, RKO, SW620, and LS147T cell lines, which are highly sensitive to oxaliplatin, and HT29, HTC15, CoLo205, and Lovo cell lines, which are low sensitive to oxaliplatin, were used.\n(§5) When the above results were combined with the results shown by cell lines with high sensitivity to oxaliplatin and cell lines with low sensitivity to oxaliplatin, the result data shown in FIGS. 23 and 24 and Tables 5 to 7 below were obtained."}, "[2]": {"test_system": "LS147T cells", "assay": "ATPlite cell viability after oxaliplatin, LS147T cells in organoid culture media", "procedure": "Advanced DMEM/F12+++ (hereinafter referred to as “Ad/DF+++”) was used to produce colorectal cancer organoids. Ad/DF+++ was refrigerated at 4° C. until use, and was used in a cold state during cell washing. Ad/DF+++ medium containing the reagents shown in Table 1 below along with Ad/DF 1× (Gibco) was prepared.\nAfter preparing the Ad/DF+++ medium containing the above reagents, an appropriate amount of Matrigel (Corning #356231) was added so that the ratio between Matrigel and cells suspended in the Ad/DF+++ medium was 7:3. Then, the cells were plated on low attachment well plates at an appropriate density. The density and the type and number of well plates were determined according to the characteristics of each cell type. The medium was prepared according to the composition shown in Table 2 below, and the cells were cultured (expanded) until the required level was reached while the medium was replaced every 3 to 4 days.\nIf the organoids were expanded as needed for the experiment, the medium was carefully removed, taking care not to touch the Matrigel. The cells were separated from the Matrigel by pipetting about 20 times with 1 ml of cold Ad/DF+++. The cells in 1 to 4 wells per 6-well plate were collected in one 50 ml tube. If cells are collected from more than 4 wells into one tube, the Metrigel may not be washed properly. For this reason, the cells were placed in several tubes. […] After suspending the pellet in Ad/DF+++, the cells were counted and diluted with medium according to the required number of cells. […]\nas §1\nAs the standard for confirming that cells are sensitive to the drug, the response of the cells to the drug was assumed to be 100%, and the luminescence value of surviving cells after drug treatment was analyzed and compared with the quantified drug response value. […]"}, "[3]": {"test_system": "Total Cell Line", "assay": "Average oxaliplatin AUC over all colorectal cancer cell lines", "procedure": "as §1, §2, §3, §4, §5"}}}
{"smiles": "O=C1[O][Pt]2([NH][C@@H]3CCCC[C@H]3[NH]2)[O]C1=O", "note": "[oxaliplatin]", "values": [{"measurement": "EX1_AUC", "setting": "[1]; average over sensitive cell lines, Ex1 medium (inhibitors and activators)", "result": 396.08}, {"measurement": "EX2_AUC", "setting": "[1]; average over sensitive cell lines, Ex2 medium (no inhibitors, no activators)", "result": 347.78}, {"measurement": "normal_AUC", "setting": "[1]; average over sensitive cell lines, normal cell-line culture", "result": 274.55}, {"measurement": "sensitivity to oxaliplatin, Ex2 compared with Ex1", "setting": "[1]; cell lines with high sensitivity, FIG. 23", "result": "higher in Ex2 without both inhibitors and activators than in Ex1"}, {"measurement": "EX1 − EX2 (AUC difference)", "setting": "[1]; sensitive cell lines", "result": 48.30}, {"measurement": "AUC value, Ex2 compared with other organoid culture conditions", "setting": "[2]; FIG. 12", "result": "lower in the organoid culture conditions of Ex2"}, {"measurement": "AUC value, Ex3 and Ex4 compared with Ex1", "setting": "[2]; FIG. 12", "result": "no difference in AUC values from Ex1"}, {"measurement": "IC50 value, Ex2 compared with Ex1", "setting": "[2]; FIG. 13", "result": "higher in Ex2 than in Ex1"}, {"measurement": "EX1_AUC", "setting": "[3]; average over total cell lines, Ex1 medium", "result": 408.05}, {"measurement": "EX2_AUC", "setting": "[3]; average over total cell lines, Ex2 medium", "result": 384.32}, {"measurement": "normal_AUC", "setting": "[3]; average over total cell lines, normal cell-line culture", "result": 330.83}, {"measurement": "EX1 − EX2 (AUC difference)", "setting": "[3]; total cell lines", "result": 23.73}]}
